This series in a line: Stability of test item in solution. Format: physicochemical. The following applies: in Locke-Ringer Solution.

`CCC(=O)[O-].[Na+]` [Sodium propionate]: the “Stability of Test Item in Solution” value is ≥6 months in Locke-Ringer Solution.

These data come from patent US20200000751A1, “CARBOXYLIC ACIDS FOR TREATING/PREVENTING NASAL CONGESTION” (PROPONENT BIOTECH GMBH, priority 2016, published 2020).
